Tests used:
ADAM17 = biological target: T1, ADAM17 (Homo sapiens, UniProt P78536); assay: ADAM17 inhibition experiment (fluorescent synthetic substrate); assay type: biochemical; conditions: from Table 3
T1 construct: made in house; host or cells: mammalian cells or insect cells
Protocol: The cDNA was incorporated into an expression vector. Then, this vector was transfected into mammalian cells or insect cells, and ADAM17 was expressed and obtained.
Next, the activity of ADAM17 was measured, as follows in the presence or absence of the test substances, in which obtained ADAM17 was used as an enzyme, and a fluorescent synthetic substrate Nma (N-methyl anthranilate)-[…]Dnp (dinitrophenyl)-D-Arg-NH2 containing an ADAM17-cleavage sequence of membrane-bound TNF was used as a substrate.
Specifically, 90 μL of 14 units of an enzyme solution (1 unit is defined as an amount of enzyme degrading […] of the substrate in 1 minute at 25° C.) prepared with Assay Buffer A (50 mmol/L Tris-HCl buffer (pH 7.5) containing 200 mmol/L sodium chloride, 5 mmol/L calcium chloride, 10 μmol/L zinc sulfate, and 2 mg/mL bovine serum albumin) was mixed with 90 μL of the fluorescent synthetic substrate adjusted to be 20 μmol/L with Assay Buffer B (50 mmol/L Tris-HCl buffer (pH 7.5) containing 200 mmol/L sodium chloride, 5 mmol/L calcium chloride, 10 μmol/L zinc sulfate, and 0.05% PLURONIC F-68), and allowed for reaction at 37° C. for 1.5 hours. Thereafter, the enzyme activity was determined by measurement using a fluorometer (Fluoroskan Ascent) under conditions of an excitation wavelength of 355 nm and a measurement wavelength of 460 nm. Then, an inhibition rate was obtained based on the enzyme activities in the presence and absence of the test compounds, and the 50% inhibitory concentration (IC50) was calculated.
A disintegrin and metalloproteinase 17 (ADAM17, TACE) (used was one prepared at Kaken Pharmaceutical Co., Ltd. by employing the genetic recombination in the same way as in Test Example 3. Note that, the same as in Test Example 3, 1 unit is defined as an amount of enzyme degrading 1 pmol of substrate in 1 minute at 25° C.)
TACE substrate (the same as one used in Test Example 3): excitation wavelength at 355 nm, emission wavelength at 460 nm
(§1) The enzyme reaction was carried out using the enzymes and substrates. Specifically, if necessary, the enzyme was activated in advance with APMA (final concentration 1 mmol/L, p-aminophenylmercuric acetate, manufactured by Sigma-Aldrich Co., A9563) according to information from the manufacturer. Then, in a 96-well plate for fluorescence measurement, 90 μL of an enzyme solution prepared with Assay Buffer A (50 mmol/L Tris-HCl buffer (pH 7.5) containing 200 mmol/L sodium chloride, 5 mmol/L calcium chloride, 10 μmol/L zinc sulfate, and 2 mg/mL bovine serum albumin) was mixed with 90 μL of the substrate adjusted to be 20 μmol/L with Assay Buffer B (50 mmol/L Tris-HCl buffer (pH 7.5) containing 200 mmol/L sodium chloride, 5 mmol/L calcium chloride, 10 μmol/L zinc sulfate, and 0.05% PLURONIC F-68), and incubated for reaction at 25° C. or 37° C. for several hours. Moreover, the fluorescence intensities before and after the reaction were measured using a fluorometer to determine the enzyme activity. An inhibition rate was obtained based on the enzyme activities in the presence and absence of the test substances, and the 50% inhibitory concentration (IC50) was calculated.

[1] = biological target: T2, Matrix metalloproteinase 2 (MMP-2) (Homo sapiens, UniProt P08253); assay: Enzyme inhibition experiment, MMP-2; assay type: biochemical; conditions: 3163 substrate, 37° C., 5 hours
T2 construct: purchased Calbiochem 444213
T2 sequence (P08253 110-660): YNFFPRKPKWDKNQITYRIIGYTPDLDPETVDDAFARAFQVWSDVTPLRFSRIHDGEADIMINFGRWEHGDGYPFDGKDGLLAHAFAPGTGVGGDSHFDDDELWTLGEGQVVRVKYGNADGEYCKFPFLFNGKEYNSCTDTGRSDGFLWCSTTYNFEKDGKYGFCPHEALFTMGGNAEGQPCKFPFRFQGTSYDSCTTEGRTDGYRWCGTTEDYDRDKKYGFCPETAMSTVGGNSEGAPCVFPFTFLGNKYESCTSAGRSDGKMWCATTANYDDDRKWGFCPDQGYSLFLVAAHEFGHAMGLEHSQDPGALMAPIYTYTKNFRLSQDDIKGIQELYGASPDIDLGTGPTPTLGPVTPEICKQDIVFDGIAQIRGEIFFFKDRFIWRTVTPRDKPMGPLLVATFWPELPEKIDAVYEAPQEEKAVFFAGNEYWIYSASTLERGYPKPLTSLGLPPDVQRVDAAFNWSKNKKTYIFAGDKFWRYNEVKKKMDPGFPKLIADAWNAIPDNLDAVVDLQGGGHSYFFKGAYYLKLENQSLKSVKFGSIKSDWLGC
Protocol: as §1, with “activity.” for “activity. An inhibition rate was obtained based on the enzyme activities in the presence and absence of the test substances, and the 50% inhibitory concentration (IC50) was calculated.”

[2] = biological target: T3, Matrix metalloproteinase 8 (MMP-8) (Homo sapiens, UniProt P22894); assay: Enzyme inhibition experiment, MMP-8; assay type: biochemical; conditions: 3163 substrate, 37° C., 5 hours
T3 construct: purchased Calbiochem 444229
T3 sequence (P22894 101-467): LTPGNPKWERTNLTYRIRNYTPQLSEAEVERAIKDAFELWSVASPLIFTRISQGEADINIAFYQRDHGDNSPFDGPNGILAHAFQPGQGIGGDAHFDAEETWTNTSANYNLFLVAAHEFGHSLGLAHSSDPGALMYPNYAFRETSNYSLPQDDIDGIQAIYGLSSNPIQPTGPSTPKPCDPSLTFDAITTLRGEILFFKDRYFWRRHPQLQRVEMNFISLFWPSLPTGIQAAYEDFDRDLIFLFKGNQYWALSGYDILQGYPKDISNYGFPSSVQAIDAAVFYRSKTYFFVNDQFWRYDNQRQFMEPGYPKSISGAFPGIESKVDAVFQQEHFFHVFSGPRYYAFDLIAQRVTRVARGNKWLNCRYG
Protocol: as §1, with “activity.” for “activity. An inhibition rate was obtained based on the enzyme activities in the presence and absence of the test substances, and the 50% inhibitory concentration (IC50) was calculated.”

[3] = biological target: T4, Matrix metalloproteinase 9 (MMP-9) (Homo sapiens, UniProt P14780); assay: Enzyme inhibition experiment, MMP-9; assay type: biochemical; conditions: 444221 substrate, 37° C., 4 hours
T4 construct: purchased Calbiochem 444231
T4 sequence (P14780 94-707): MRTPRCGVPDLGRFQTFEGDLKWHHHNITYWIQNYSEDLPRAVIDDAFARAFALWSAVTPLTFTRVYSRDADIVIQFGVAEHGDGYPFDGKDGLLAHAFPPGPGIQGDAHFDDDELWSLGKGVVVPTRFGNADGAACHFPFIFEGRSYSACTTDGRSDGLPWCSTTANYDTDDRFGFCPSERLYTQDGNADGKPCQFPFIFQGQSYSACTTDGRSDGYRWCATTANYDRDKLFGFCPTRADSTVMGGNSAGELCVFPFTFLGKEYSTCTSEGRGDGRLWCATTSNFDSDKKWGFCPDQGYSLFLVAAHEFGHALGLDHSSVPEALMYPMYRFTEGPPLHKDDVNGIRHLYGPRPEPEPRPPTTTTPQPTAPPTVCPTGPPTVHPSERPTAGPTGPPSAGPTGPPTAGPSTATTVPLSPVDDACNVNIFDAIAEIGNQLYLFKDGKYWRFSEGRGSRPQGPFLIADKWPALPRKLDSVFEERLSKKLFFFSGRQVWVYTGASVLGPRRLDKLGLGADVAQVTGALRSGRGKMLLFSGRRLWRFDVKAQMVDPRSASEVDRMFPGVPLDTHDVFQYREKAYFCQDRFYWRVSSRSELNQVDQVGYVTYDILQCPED
Protocol: as §1, with “activity.” for “activity. An inhibition rate was obtained based on the enzyme activities in the presence and absence of the test substances, and the 50% inhibitory concentration (IC50) was calculated.”

[4] = biological target: T5, Matrix metalloproteinase 14 (MMP-14) (Homo sapiens, UniProt P50281); assay: Enzyme inhibition experiment, MMP-14; assay type: biochemical; conditions: 444221 substrate, 37° C., 5 hours
T5 construct: purchased Calbiochem 475935
Protocol: Matrix metalloproteinase 14 (MMP-14) (manufactured by Calbiochem, product number: 475935)
444221 substrate (DNP-Pro-Cha-Gly-Cys(Me)-His-Ala-Lys(Nma)-NH2, custom synthesis): excitation wavelength at 355 nm, emission wavelength at 460 nm
as §1

[5] = system: human peripheral blood-derived platelets (ADAM17-mediated GPIbα shedding); assay: Function-maintaining effect on human peripheral blood-derived washed platelets with CCCP (flow cytometry CD41/CD42b); assay type: cell-based; conditions: Test Example 13; 100 μM CCCP, 37° C., 24 hours; S-45457 50 μM, S-45282 5 μM, p38 inhibitors 40 μM
Protocol: Specifically, according to <Protocol 2> illustrated in FIG. 6, first, ACD was added to human peripheral blood obtained by collecting blood at a ratio of 1:10, and centrifuged at 900 rpm for 10 minutes without a break. The supernatant obtained by the centrifugation was further centrifuged at 1500 rpm for 10 minutes without a break, and then the supernatant was removed. The precipitate thus obtained was suspended in a Tyrode-HEPES buffer (not containing calcium). The number of platelets in the suspension was counted, and the suspension (Washed Platelet) was adjusted to contain 5×10^7 to 1×10^8 of platelets/200 μL of the Tyrode-HEPES buffer (not containing calcium). […] After incubation at 37° C. for 24 hours, the numbers of CD41(+)CD42b(+) and CD41(+)CD42b(−) were counted by flow cytometry.
After incubation at 37° C. for 24 hours, a dot plot analysis on CD41(+) and CD42b(+) was conducted by flow cytometry.
After incubation at 37° C. for 24 hours and flow cytometry analysis, a percentage of CD41(+)CD42b(+) in the platelets was calculated.
After incubation at 37° C. for 24 hours, a total number of platelets and the number of CD42b(+) were counted by flow cytometry, and percentage of CD42b(+) in the platelets was calculated.
After incubation at 37° C. for 24 hours, by flow cytometry, a dot plot analysis on CD41(+) and CD42b(+) was conducted.

T1 sequence (P78536 215-824): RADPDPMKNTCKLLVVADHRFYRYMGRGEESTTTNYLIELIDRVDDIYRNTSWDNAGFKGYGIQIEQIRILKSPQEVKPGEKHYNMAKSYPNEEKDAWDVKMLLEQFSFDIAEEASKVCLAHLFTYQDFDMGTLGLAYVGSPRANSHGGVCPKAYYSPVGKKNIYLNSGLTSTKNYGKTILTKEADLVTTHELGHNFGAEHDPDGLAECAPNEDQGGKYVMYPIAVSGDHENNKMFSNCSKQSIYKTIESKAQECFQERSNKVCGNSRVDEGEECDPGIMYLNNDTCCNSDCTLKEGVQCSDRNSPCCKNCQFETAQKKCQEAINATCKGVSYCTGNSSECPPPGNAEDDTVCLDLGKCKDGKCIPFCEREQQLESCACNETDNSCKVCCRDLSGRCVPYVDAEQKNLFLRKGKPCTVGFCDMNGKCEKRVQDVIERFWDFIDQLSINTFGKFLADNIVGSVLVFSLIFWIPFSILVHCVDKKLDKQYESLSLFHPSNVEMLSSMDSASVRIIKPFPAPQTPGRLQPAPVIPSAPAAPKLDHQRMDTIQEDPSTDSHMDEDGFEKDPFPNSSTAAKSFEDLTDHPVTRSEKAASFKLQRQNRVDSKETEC

Structure (SMILES)	specificity to ADAM17 in comparison with metalloproteinases other than ADAM17 (ADAM17)	IC50 [1] [nM]	IC50 [2] [nM]	IC50 [3] [nM]	IC50 [4] [nM]	function-maintaining effect on human peripheral blood-derived platelets (dot plot CD41/CD42b) [5]
CC#CCOc1ccc(S(=O)(=O)CC(c2ccc(CN(CC)CC)cc2)N(O)C=O)cc1 (stereo not drawn) [Compound I-1, N-[2-(4-But-2-ynyloxybenzenesulfonyl)-1-(4-diethylaminomethylphenyl)ethyl]-N-hydroxyformamide]	high specificity to ADAM17	150	900	11000	1000	strong function-maintaining effect on human peripheral blood-derived platelets but not as strong as S-45457
CC#CCOc1ccc(S(=O)(=O)CC(c2ccc(CNS(C)(=O)=O)cc2)N(O)C=O)cc1 (stereo not drawn) [Compound I-4, N-{4-[2-(4-But-2-ynyloxybenzenesulfonyl)-1-(formylhydroxyamino)ethyl]benzyl}methanesulfonamide]	high specificity to ADAM17	290	950	11000	1400	suppresses ADAM17-mediated GPIbα (CD42b) shedding
